In patent US11214594B2, “Antimicrobial peptide having synergistic antibacterial effect with antibiotics on multidrug resistant bacteria, and use thereof” (priority 2016, dated 2022):
In brackets after ≈: the same amount, converted by molar mass. Where a SMILES comes first, the peptide text is derived from it. [ ]: non-standard residue; d: D form.

Experiments:
[1] = test system: MDREC 1238; type: cell-based, Escherichia coli
Summary of the method: (§1)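 Each strain is brought to 2×10^6 CFU in nutrient-sufficient Mueller-Hinton medium and dispensed into wells. Peptide solutions, stepwise diluted 2:1 in the same medium, are then added. The minimal concentration preventing growth gives the MIC.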

[2] = test system: MDRPA 2002; type: cell-based, Pseudomonas aeruginosa
Summary of the method: as §1

[3] = test system: MDRPA 2003; type: cell-based, Pseudomonas aeruginosa
Summary of the method: as §1

[4] = test system: MDRAB 12036; type: cell-based, Acinetobacter baumannii
Summary of the method: as §1

[5] = test system: S. typhimurium; assay: microbe, parasite or virus in culture; type: cell-based, Salmonella typhimurium
Summary of the method: as §1

[6] = test system: MDRST 8007; assay: Minimal inhibitory concentration (MIC), single agent; type: cell-based, Salmonella typhimurium; conditions: agent alone
Summary of the method: as §1

[7] = test system: MRSA 3114; type: cell-based, Staphylococcus aureus; conditions: 3114
Summary of the method: as §1

[8] = test system: MRSA 3126; type: cell-based, Staphylococcus aureus; conditions: 3126
Summary of the method: as §1

[9] = test system: MDREC 1229; assay: MIC of antibiotic during combined treatment with antimicrobial peptide; type: cell-based, Escherichia coli
Summary of the method: (§2)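 Antibiotic MIC came from antibiotic dilutions added to bacteria (2×10^6 CFU/ml, MH medium) already combined with peptide serially diluted 2:1 from its own MIC. Swapping the roles of the two agents gave the peptide MIC.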

[10] = test system: MDRAB 12035; assay: as above; type: cell-based, Acinetobacter baumannii
Summary of the method: as §2

[11] = test system: multi-drug resistant bacteria; assay: MIC, summary statements for multi-drug resistant bacteria; type: cell-based
Summary of the method: as §1

[12] = peptide treatment concentration 1 μg/ml
[13] = peptide treatment concentration 2 μg/ml
[14] = peptide treatment concentration 4 μg/ml
[15] = peptide treatment concentration 6 μg/ml
[16] = peptide treatment concentration 8 μg/ml
[17] = peptide treatment concentration 16 μg/ml
[18] = peptide treatment concentration 32 μg/ml
[19] = peptide treatment concentration 64 μg/ml

CC[C@H](C)[C@H](NC(=O)[C@H](CCCCN)NC(=O)[C@H](Cc1c[nH]c2ccccc12)NC(=O)[C@@H](N)CCCNC(=N)N)C(=O)N[C@@H](Cc1ccccc1)C(=O)N[C@@H](CCCCN)C(=O)N[C@@H](CCCCN)C(=O)N[C@H](C(=O)N[C@H](CCCCN)C(=O)N[C@@H](CCCCN)C(=O)N[C@@H](CC(C)C)C(=O)N[C@@H](CC(C)C)C(=O)N[C@@H](Cc1c[nH]cn1)C(=O)N[C@@H](CCCCN)C(=O)N[C@@H](Cc1ccccc1)C(=O)N[C@@H](CCCCN)C(=O)N[C@@H](CCCCN)C(=O)N[C@@H](Cc1ccccc1)C(N)=O)[C@@H](C)CC [PapMA-17, RWK IFK KIk KLL HKF KKF-NH2] (H-RWKIFKKI[dK]KLLHKFKKF-NH2; N-terminus assumed)
Minimal inhibitory concentration MIC [1]: 32 µg/mL (≈ 13.2 µM)
Minimal inhibitory concentration MIC [2]: 16 µg/mL (≈ 6.62 µM)
Minimal inhibitory concentration MIC [3]: 16 µg/mL (≈ 6.62 µM)
Minimal inhibitory concentration MIC [4]: 32 µg/mL (≈ 13.2 µM)
Minimal inhibitory concentration MIC [5]: 32 µg/mL (≈ 13.2 µM)
Minimal inhibitory concentration MIC [6]: 64 µg/mL (≈ 26.5 µM)
Minimal inhibitory concentration MIC [7]: >128 µg/mL
Minimal inhibitory concentration MIC [8]: >128 µg/mL
Antibiotic MIC, Erythromycin [9, 12]: >128 µg/mL
Antibiotic MIC, Linezolid [9, 12]: >128 µg/mL
Antibiotic MIC, Vancomycin [9, 12]: >128 µg/mL
Antibiotic MIC, Erythromycin [9, 13]: 32 µg/mL
Antibiotic MIC, Linezolid [9, 13]: >128 µg/mL
Antibiotic MIC, Vancomycin [9, 13]: >128 µg/mL
Antibiotic MIC, Erythromycin [9, 14]: 16 µg/mL
Antibiotic MIC, Linezolid [9, 14]: 64 µg/mL
Antibiotic MIC, Vancomycin [9, 14]: 64 µg/mL
Antibiotic MIC, Erythromycin [9, 15]: 8 µg/mL
Antibiotic MIC, Linezolid [9, 15]: 16 µg/mL
Antibiotic MIC, Vancomycin [9, 15]: 32 µg/mL
Antibiotic MIC, Erythromycin [9, 16]: 4 µg/mL
Antibiotic MIC, Linezolid [9, 16]: 16 µg/mL
Antibiotic MIC, Vancomycin [9, 16]: 16 µg/mL
Antibiotic MIC, Erythromycin [9, 17]: 0 µg/mL
Antibiotic MIC, Linezolid [9, 17]: 0 µg/mL
Antibiotic MIC, Vancomycin [9, 17]: 0 µg/mL
Antibiotic MIC, Erythromycin [9, 18]: 0 µg/mL
Antibiotic MIC, Linezolid [9, 18]: 0 µg/mL
Antibiotic MIC, Vancomycin [9, 18]: 0 µg/mL
Antibiotic MIC, Erythromycin [9, 19]: 0 µg/mL
Antibiotic MIC, Linezolid [9, 19]: 0 µg/mL
Antibiotic MIC, Vancomycin [9, 19]: 0 µg/mL
Erythromycin MIC during combined treatment with peptide [10, 12]: 32 µg/mL
Linezolid MIC during combined treatment with peptide [10, 12]: >128 µg/mL
Vancomycin MIC during combined treatment with peptide [10, 12]: >128 µg/mL
Erythromycin MIC during combined treatment with peptide [10, 13]: 16 µg/mL
Linezolid MIC during combined treatment with peptide [10, 13]: 128 µg/mL
Vancomycin MIC during combined treatment with peptide [10, 13]: >128 µg/mL
Erythromycin MIC during combined treatment with peptide [10, 14]: 8 µg/mL
Linezolid MIC during combined treatment with peptide [10, 14]: 32 µg/mL
Vancomycin MIC during combined treatment with peptide [10, 14]: 128 µg/mL
Erythromycin MIC during combined treatment with peptide [10, 15]: 4 µg/mL
Linezolid MIC during combined treatment with peptide [10, 15]: 32 µg/mL
Vancomycin MIC during combined treatment with peptide [10, 15]: 32 µg/mL
Erythromycin MIC during combined treatment with peptide [10, 16]: 0.5 µg/mL
Linezolid MIC during combined treatment with peptide [10, 16]: 16 µg/mL
Vancomycin MIC during combined treatment with peptide [10, 16]: 16 µg/mL
Erythromycin MIC during combined treatment with peptide [10, 17]: 0.25 µg/mL
Linezolid MIC during combined treatment with peptide [10, 17]: 4 µg/mL
Vancomycin MIC during combined treatment with peptide [10, 17]: 8 µg/mL
Erythromycin MIC during combined treatment with peptide [10, 18]: 0 µg/mL
Linezolid MIC during combined treatment with peptide [10, 18]: 0 µg/mL
Vancomycin MIC during combined treatment with peptide [10, 18]: 0 µg/mL
Erythromycin MIC during combined treatment with peptide [10, 19]: 0 µg/mL
Linezolid MIC during combined treatment with peptide [10, 19]: 0 µg/mL
Vancomycin MIC during combined treatment with peptide [10, 19]: 0 µg/mL
Antibacterial activity relative to PapMA-1 [11]: twice to four times higher
